Experimental data published in publication PMC9241669, “Allantodapsone is a Pan-Inhibitor of Staphylococcus aureus Adhesion to Fibrinogen, Loricrin, and Cytokeratin 10” (Microbiology Spectrum, 2022).
Where two headings read alike, the source gives them in different places.

Assays:
Format in all cases: cell-based, Staphylococcus aureus
S. aureus SH1000 = assay: Adhesion of S. aureus SH1000 to immobilized fibrinogen (crystal violet); conditions: for IC50: Staphylococcus aureus
Protocol: FIG 2 Allantodapsone inhibits S. aureus adhesion to fibrinogen. (A) S. aureus Newman stationary phase and (B) exponential phase. (C) S. aureus SH1000 stationary phase and (D) exponential phase bacteria. Fibrinogen was used to coat plates at 4°C overnight at 10 μg/mL. Wells were washed with PBS and blocked with 1% BSA. Washed bacteria (OD600 of 1) were mixed with the relevant concentration of allantodapsone or vehicle control for 5 min, and added to the wells, incubating for 2 h at 37°C. Adherent cells were washed, fixed, and stained with crystal violet, and wells further washed. The dye was dissolved in acetic acid and the absorbance measured at 570 nm. Compounds were screened at a concentration of 70 μM and compared to their vehicle control. Statistical analysis was carried out using repeated measures ANOVA followed by multiple comparisons Dunnett’s tests using GraphPad PRISM. **, P ≤ 0.01; ***, P ≤ 0.001; ****, P ≤ 0.0001 (n = 3).
Adhesion assays were carried out according to Hartford et al. ([37]). Briefly, plates were coated with 10 μg/mL fibrinogen (Calbiochem, Darmstadt, Germany) or 20 μg/mL fibronectin (Sigma-Aldrich, Ireland) for 2 h at 37°C or for 16 h at 4°C. Plates were blocked with 1% BSA at 37°C for 1 h and washed 3 times in PBS. Washed bacteria were incubated at 37°C for 2 h. Adherent bacteria were washed three times in PBS and fixed in 5–9% formaldehyde at room temperature for 30 min. Wells were washed three times in PBS and stained using 5% crystal violet for 20 min. Wells were washed three times in PBS, and the crystal violet solubilized using 5% acetic acid. Plates were read at 570 nm on a Wallac Victor2, (Shelton, CT, USA). The minimum adhesion inhibitory concentration (MAIC) was determined as the concentration inhibiting greater than 90% bacterial adhesion.
Compounds were added to the bacterial suspension prior to addition to the wells. In each experiment, vehicle controls were prepared using the same volume of vehicle for the matching test compound.

S. aureus Newman [1] = assay: Antimicrobial assay (bacterial growth in BHI broth); conditions: overnight in BHI broth, allantodapsone up to 100 μM, versus vehicle control
Protocol: S. aureus was grown in BHI broth shaking overnight at 37°C in the presence of a range of concentrations of allantodapsone, dapsone, or ampicillin as control. Absorbance was measured the following day at 570 nm. Data have been normalized to the relevant vehicle control (1% DMSO for allantodapsone and dapsone and water for ampicillin). […] Error bars represent SEM.
S. aureus was grown overnight in BHI broth at 37°C in shaking incubator. Wells were inoculated with 10 μL of overnight culture into 90 μL of broth containing the test compounds or controls. A growth control containing no agents was used (positive control), a sterility control of broth alone was included, and vehicle controls were included for each test compound. Plates were incubated overnight at 37°C and absorbance measured at 570 nm the following day using a Wallac Victor2, (Shelton, CT, USA).

S. aureus Newman [2] = assay: Agglutination (fibrinogen clumping) assay; conditions: 100 μM allantodapsone; 5 mg/mL fibrinogen; stationary phase
Protocol: V. Microbiology: Materials and Methods
The MTT toxicity assay (1) (Vybrant MTT Cell Proliferation Assay, Molecular Probes, Or, USA) was used to measure cytotoxicity. Myeloid lineage, U-937 cells (2) were grown in RPMI-1640 (Gibco) culture medium supplemented with 10% foetal calf serum, 1% L-glutamine and 1% Penicillin/Streptomycin (Gibco). U-937 cells were centrifuged and cells diluted with fresh medium containing 1.2 mM MTT solution to a concentration of (5-6 x 10^6 per mL) and incubated at 37 °C for 2 h. Cells were centrifuged and the pellet dissolved in DMSO. The absorbance was read at 490 nm using the Wallac Victor2, (Shelton, Connecticut, USA).
Platelet aggregation was performed in platelet rich plasma according to O’Brien et al.
S. aureus Newman (stationary phase) was washed and diluted to an OD600 of 2.5.
This was mixed with 10 mg/mL of fibrinogen in 1:1 ratio resulting in a final concentration 5 mg/mL fibrinogen. Fibrinogen -bacteria aggregates clump and settle at the bottom of the tube resulting in a clear solution. These were compared to the turbid bacterial suspension in buffer by visual inspection. […]
of S. aureus Newman was used as an agonist to stimulate platelet aggregation. The FcγRIIa antibody IV.3 (StemCell Technologies, London, UK) was used at a concentration of […]. […] Data was analysed by repeated measures ANOVA followed by a multiple comparison Dunnett’s test. […]

For `Nc1ccc(S(=O)(=O)c2ccc(NCN3C(=O)NC(=O)C(=O)C3=O)cc2)cc1` [Allantodapsone], the “inhibition of adhesion to fibrinogen” value (S. aureus SH1000; S. aureus SH1000, stationary and exponential phase, compounds screened at 70 μM (Fig. 2)) was “inhibited”, the IC50 (S. aureus SH1000; SH1000, read-out: IC50, inhibition of adhesion to fibrinogen, S. aureus SH1000 exponential phase) was 15.6 µM and the IC50 (S. aureus SH1000; SH1000, read-out: IC50, inhibition of adhesion to fibrinogen, S. aureus SH1000 stationary phase) was 7.6 µM. The “inhibition of bacterial growth (words)” value (S. aureus Newman [1]) was “does not inhibit bacterial growth”, the “inhibition of bacterial growth (words)” value (S. aureus Newman [1]; listed as allantodapsone) was “no inhibition of bacterial growth” and the “inhibition of clumping of bacteria in fibrinogen” value (S. aureus Newman [2]) was “did not inhibit”.
